# Source: ChEMBL document CHEMBL1201862, “PubChem BioAssay data set” (2004)
# “And” between values parts separate entries of the source, which are not always exact repeats. Identical values can stand only once. The source made the active and inactive calls.
# Assays:
# Cytochrome P450 2C19 = Cytochrome P450 2C19 (Homo sapiens, UniProt P33261); assay: Cytochrome panel assay with activity outcomes. Panel member name: p450-cyp2c19 Compounds with AC50 equal or less than 10 uM are considered active; type: functional
# Sequence of Cytochrome P450 2C19 (P33261 whole entry): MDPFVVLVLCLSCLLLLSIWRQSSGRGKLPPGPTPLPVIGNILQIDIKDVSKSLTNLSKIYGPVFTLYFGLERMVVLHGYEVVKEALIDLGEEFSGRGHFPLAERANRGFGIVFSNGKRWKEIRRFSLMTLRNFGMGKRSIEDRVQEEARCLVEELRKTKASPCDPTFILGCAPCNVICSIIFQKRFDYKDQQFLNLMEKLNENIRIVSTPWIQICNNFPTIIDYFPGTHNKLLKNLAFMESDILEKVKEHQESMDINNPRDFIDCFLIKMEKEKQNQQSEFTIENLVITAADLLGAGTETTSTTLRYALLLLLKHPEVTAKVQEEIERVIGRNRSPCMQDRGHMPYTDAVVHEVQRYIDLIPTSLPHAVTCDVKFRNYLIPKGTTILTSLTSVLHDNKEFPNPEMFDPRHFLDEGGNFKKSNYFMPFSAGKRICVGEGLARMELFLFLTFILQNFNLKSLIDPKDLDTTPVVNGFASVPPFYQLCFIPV
# Cytochrome P450 3A4 = Cytochrome P450 3A4 (Homo sapiens, UniProt P08684);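 further: CYP3A4 tested as one member of a cytochrome P450 panel screen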
# Sequence of Cytochrome P450 3A4 (P08684 whole entry): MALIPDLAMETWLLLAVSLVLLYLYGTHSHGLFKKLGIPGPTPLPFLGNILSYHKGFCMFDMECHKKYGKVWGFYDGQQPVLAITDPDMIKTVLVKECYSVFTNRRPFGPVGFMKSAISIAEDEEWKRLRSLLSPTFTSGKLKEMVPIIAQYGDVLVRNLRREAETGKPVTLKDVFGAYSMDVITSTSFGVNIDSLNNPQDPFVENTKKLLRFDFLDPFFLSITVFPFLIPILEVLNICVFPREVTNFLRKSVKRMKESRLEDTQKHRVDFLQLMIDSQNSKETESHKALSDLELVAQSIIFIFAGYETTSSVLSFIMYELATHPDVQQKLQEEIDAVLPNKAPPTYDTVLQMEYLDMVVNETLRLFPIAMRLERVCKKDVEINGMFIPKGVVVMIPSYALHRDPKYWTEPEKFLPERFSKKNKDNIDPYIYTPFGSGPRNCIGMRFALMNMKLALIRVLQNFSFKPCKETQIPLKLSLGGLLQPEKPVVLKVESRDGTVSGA
# Cytochrome P450 2C9 = Cytochrome P450 2C9 (Homo sapiens, UniProt P11712)
# Sequence of Cytochrome P450 2C9 (P11712 whole entry): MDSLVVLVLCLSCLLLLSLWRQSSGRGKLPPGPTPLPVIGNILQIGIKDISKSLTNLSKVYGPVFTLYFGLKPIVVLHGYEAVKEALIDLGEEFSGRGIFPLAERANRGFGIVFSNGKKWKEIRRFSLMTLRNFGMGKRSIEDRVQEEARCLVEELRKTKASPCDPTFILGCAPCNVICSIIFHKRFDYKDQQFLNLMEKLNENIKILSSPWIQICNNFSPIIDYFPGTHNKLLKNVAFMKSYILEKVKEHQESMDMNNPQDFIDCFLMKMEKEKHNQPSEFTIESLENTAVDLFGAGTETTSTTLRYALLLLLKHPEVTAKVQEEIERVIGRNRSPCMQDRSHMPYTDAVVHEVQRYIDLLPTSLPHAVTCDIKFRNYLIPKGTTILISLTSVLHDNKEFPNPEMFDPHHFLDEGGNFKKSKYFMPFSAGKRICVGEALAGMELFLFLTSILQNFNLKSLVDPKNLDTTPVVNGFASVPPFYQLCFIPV
# [1] = target: T1, Heat shock factor protein 1 (Mus musculus, UniProt P38532); assay: decrease of HSF1-responsive luciferase luminescence – cell-based, NIH3T3, dose retest, confirmation (AID 2382); type: functional;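 further: NIH3T3 fibroblasts with HSF1-driven luciferase reporter stressed by proteasome inhibitor MG132; luminescence from HSF1-driven luciferase expression after 8 hours of MG132 stress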
# T1 sequence (P38532 whole entry): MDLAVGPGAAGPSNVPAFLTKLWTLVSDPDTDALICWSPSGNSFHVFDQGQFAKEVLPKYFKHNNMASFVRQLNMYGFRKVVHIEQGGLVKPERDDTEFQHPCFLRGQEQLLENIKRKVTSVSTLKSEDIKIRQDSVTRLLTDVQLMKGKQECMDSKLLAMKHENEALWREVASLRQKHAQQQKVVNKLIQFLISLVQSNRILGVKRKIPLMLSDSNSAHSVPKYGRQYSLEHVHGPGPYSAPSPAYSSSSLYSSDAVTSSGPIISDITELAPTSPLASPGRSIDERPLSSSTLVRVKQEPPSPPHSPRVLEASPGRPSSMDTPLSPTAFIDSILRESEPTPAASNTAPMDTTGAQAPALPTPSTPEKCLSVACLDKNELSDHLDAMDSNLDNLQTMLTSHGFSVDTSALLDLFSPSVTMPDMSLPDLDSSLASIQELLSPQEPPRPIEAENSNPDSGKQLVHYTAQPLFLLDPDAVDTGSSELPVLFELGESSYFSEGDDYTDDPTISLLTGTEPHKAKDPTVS
# Streptococcus = assay: GAS UMAA2166 growth inhibition – luminescence, BacTiterGlo, counter-screen for streptokinase expression inhibitor project, dose response (AID 1915); type: functional, organism-based;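 further: potency for reduction of bacterial viability or growth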
# Streptokinase A = target: T2, Streptokinase A (Streptococcus pyogenes serotype M1, UniProt P10520); assay: viability-normalized secreted streptokinase activity reduction – plasminogen activation absorbance, OD405, dose response (AID 1914); type: functional, Streptococcus pyogenes M1 GAS;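 further: secreted streptokinase activity via plasminogen activation per viability signal from cell pellet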
# T2 sequence (P10520 whole entry): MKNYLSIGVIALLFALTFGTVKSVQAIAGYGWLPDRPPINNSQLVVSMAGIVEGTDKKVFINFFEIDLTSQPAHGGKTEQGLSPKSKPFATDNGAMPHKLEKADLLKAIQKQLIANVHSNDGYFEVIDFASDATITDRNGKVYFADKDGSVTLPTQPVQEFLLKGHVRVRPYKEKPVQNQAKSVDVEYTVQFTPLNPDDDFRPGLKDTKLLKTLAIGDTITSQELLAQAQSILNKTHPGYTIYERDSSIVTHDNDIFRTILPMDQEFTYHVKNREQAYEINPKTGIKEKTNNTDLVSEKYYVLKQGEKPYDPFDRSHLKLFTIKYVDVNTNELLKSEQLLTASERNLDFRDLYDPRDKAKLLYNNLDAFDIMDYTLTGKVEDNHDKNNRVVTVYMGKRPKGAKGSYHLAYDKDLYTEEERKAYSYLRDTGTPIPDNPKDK
# [2] = tested on: Streptococcus sp. 'group A'; assay: Streptococcus pyogenes SK(-)GAS viability under kanamycin – luminescence, BacTiterGlo, confirmation, counter-screen for streptokinase expression inhibitor project, dose response (AID 1900); type: functional, organism-based
# Cytochrome P450 1A2 = target: T3, Cytochrome P450 1A2 (Homo sapiens, UniProt P05177);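 further: PubChem cytochrome P450 panel assay, CYP1A2 panel member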
# T3 sequence (P05177 whole entry): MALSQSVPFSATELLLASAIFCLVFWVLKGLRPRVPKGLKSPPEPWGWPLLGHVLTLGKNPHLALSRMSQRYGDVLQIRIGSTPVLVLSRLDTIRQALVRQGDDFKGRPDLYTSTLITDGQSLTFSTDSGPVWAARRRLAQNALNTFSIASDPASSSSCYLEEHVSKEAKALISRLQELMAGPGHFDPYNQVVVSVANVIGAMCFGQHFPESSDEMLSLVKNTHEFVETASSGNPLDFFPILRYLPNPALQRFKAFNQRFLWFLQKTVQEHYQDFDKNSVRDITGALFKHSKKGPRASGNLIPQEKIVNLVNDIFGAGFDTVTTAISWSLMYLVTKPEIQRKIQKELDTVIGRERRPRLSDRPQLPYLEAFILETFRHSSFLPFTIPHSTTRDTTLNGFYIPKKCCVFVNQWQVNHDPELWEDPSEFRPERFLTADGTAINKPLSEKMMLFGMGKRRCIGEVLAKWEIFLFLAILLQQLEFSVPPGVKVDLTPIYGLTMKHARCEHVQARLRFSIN
# [3] = Luminescence Cell-Based Dose Response HTS to Identify Activators of Luciferase Translation or Activity in H4 […] Cells. [Related pubchem assays: 1829 (Project Summary), 1814 (Primary HTS)]; type: functional
# [4] = Luminescence Cell-Based Dose Confirmation HTS to Identify Activators of 5'UTR Stem-Loop Driven Alpha-Synuclein mRNA Translation in H4 Neuroglioblastoma Cells. [Related pubchem assays: 1829 (Project Summary), 1814 (Primary HTS)]; type: functional
# H4 = assay: Luminescence Cell-Based Dose Response HTS to Identify Activators of 5'UTR Stem-Loop Driven Prion Protein mRNA Translation in H4 Neuroglioblastoma Cells. [Related pubchem assays: 1829 (Project Summary), 1814 (Primary HTS)]; type: functional; settings: Homo sapiens
# Cytochrome P450 2D6 = Cytochrome P450 2D6 (Homo sapiens, UniProt P10635);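 further: CYP2D6 member of a cytochrome P450 panel assay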
# Sequence of Cytochrome P450 2D6 (P10635 whole entry): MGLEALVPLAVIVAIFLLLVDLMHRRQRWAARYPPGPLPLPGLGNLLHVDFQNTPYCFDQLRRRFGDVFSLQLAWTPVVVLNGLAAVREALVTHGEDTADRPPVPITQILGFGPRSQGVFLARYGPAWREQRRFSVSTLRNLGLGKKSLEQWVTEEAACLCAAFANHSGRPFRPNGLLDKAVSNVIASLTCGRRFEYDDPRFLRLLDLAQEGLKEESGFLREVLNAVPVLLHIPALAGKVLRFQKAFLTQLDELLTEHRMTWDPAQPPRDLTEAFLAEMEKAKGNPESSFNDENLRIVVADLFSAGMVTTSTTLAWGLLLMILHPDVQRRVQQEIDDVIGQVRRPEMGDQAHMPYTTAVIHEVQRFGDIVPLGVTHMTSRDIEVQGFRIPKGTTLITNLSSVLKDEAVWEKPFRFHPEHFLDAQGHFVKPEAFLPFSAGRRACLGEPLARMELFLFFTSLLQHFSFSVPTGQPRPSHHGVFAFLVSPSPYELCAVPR
compound,measurement,setting,value
COc1ccc(N2CC(C(=O)OCC(=O)c3cccc(OC)c3)CC2=O)cc1 (configuration not stated),AC50,Cytochrome P450 2C19; read-out: AC50,8.91 µM (inconclusive)
CCSc1ccc2c(c1)N(CCCN1CCN(C)CC1)c1ccccc1S2,AC50,Cytochrome P450 3A4,10 µM (inconclusive)
same,AC50,Cytochrome P450 2C19; read-out: AC50,3.16 µM (inconclusive)
Cc1ncc(CSC(=N)N)n1Cc1ccccc1,AC50,Cytochrome P450 2C19; read-out: AC50,7.94 µM (inconclusive)
CCOC(=O)Nc1nc(-c2ccccc2)c(C)s1,AC50,Cytochrome P450 2C9,7.94 µM (inconclusive)
same,AC50,Cytochrome P450 2C19; read-out: AC50,3.98 µM (inconclusive)
CSc1cccc(NC(=S)N2CCC(N(C)C3CCCC3)CC2)c1,EC50,[1],> 195 µM (not active)
COc1ccc(C(C)N=C(S)NC2CCCCC2)cc1OC (configuration not stated),EC50,[1],> 195 µM (not active)
FC(F)(F)c1cc(-c2ccccc2)nc(N2CCCCCC2)n1,EC50,Streptococcus,14.3 µM (active)
same,EC50,Streptokinase A,5.14 µM (active)
same,EC50,[2],4.27 µM (active)
COc1[nH]nc2nncnc12,AC50,Cytochrome P450 1A2,6.31 µM (inconclusive)
same,AC50,Cytochrome P450 2C19; read-out: AC50,15.8 µM (inconclusive)
CCC1C(=O)n2nc(-c3ccccc3)cc2N=C1C (configuration not stated),EC50,[3],6.09 µM (active)
same,EC50,[4],25.7 µM (active)
COc1ccc(N2CCN(C(=O)Cc3csc(NC(=O)Nc4ccccc4OC)n3)CC2)cc1,EC50,Streptococcus,32.7 µM (active)
same,EC50,Streptokinase A,> 150 µM (not active)
same,EC50,[2],> 150 µM (not active)
O=C(Nc1nc(-c2ccccn2)cs1)C12CC3CC(CC(O)(C3)C1)C2,EC50,Streptococcus,> 150 µM (not active)
same,EC50,Streptokinase A,> 150 µM (not active)
same,EC50,[2],> 150 µM (not active)
CC(=O)c1cc(C)ccc1OC(=O)CCN1C(=O)C2C3c4ccccc4C(c4ccccc43)C2C1=O (configuration not stated),AC50,Cytochrome P450 3A4,31.6 µM (inconclusive)
same,AC50,Cytochrome P450 2C19; read-out: AC50,10 µM (inconclusive)
Cc1cc(O)[nH]c2nnc(-c3ccccc3)c1-2,EC50,[3],10 µM (active)
same,EC50,[4],8.88 µM (active)
same,EC50,H4,15.1 µM (active)
O=C(NC1CCCCC1)C(c1ccco1)N(C(=O)c1csnn1)c1ccc(Cl)cc1 (configuration not stated),EC50,[1],> 195 µM (not active)
Cc1ccc(C(=O)N(CN2CCCC2=O)c2ccccc2)cc1C,AC50,Cytochrome P450 2C9,0.00562 µM (inconclusive)
same,AC50,Cytochrome P450 1A2,5.01 µM (inconclusive)
COc1cc(Cn2cnnn2)ccc1O,AC50,Cytochrome P450 2C9,0.178 µM (inconclusive)
same,AC50,Cytochrome P450 1A2,39.8 µM (inconclusive)
COc1cc2c(cc1OC)/C(=C/C(=O)N1CCOCC1)NC(C)(C)C2,AC50,Cytochrome P450 2C9,3.98 µM (inconclusive)
same,AC50,Cytochrome P450 1A2,15.8 µM (inconclusive)
same,AC50,Cytochrome P450 2C19; read-out: AC50,22.4 µM (inconclusive)
COc1cc(NC(=O)n2ncc3cc(Cl)ccc32)cc(OC)c1,EC50,[3],17.4 µM (active)
same,EC50,H4,12.5 µM (active)
COc1ccc(C(=O)N2CCCC(Nc3ccc(C)c(C)c3)C2)cc1F (configuration not stated),EC50,Streptococcus,> 150 µM (not active)
same,EC50,Streptokinase A,> 150 µM (not active)
same,EC50,[2],> 150 µM (not active)
COc1ccccc1CNc1ccnc(-c2ccc(C(=O)N(C)C)cc2)n1,AC50,Cytochrome P450 2D6,39.8 µM (inconclusive)
same,AC50,Cytochrome P450 2C19; read-out: AC50,39.8 µM (inconclusive)
CCCC(=O)Nc1c(C)n[nH]c1C,AC50,Cytochrome P450 2C19; read-out: AC50,3.98 µM (inconclusive)
COC(=O)CCCC1=CC2=C(c3ccccc3)C(=O)C(C)(OC(=O)C3CCCC3)C(=O)C2=CN1c1ccc(OC)cc1 (configuration not stated),EC50,[1],> 195 µM (not active)
Cc1ccc(OCC(=O)NNC(=O)CCC(=O)Nc2ccc(C)cc2C)cc1,AC50,Cytochrome P450 2C19,inconclusive
COC(=O)[C@H](C)NC(=O)NCCC1=CCCCC1,EC50,[1],> 195 µM (not active)
Cc1ccccc1N1CCN(C(=O)c2ccccc2NC(=O)/C=C\C(=O)O)CC1,AC50,Cytochrome P450 2C19; read-out: AC50,28.2 µM (inconclusive)
OC1/C(=C/c2ccccc2C(F)(F)F)N2CCC1CC2 (configuration not stated),EC50,[1],> 195 µM (not active)
N[C@@H](C(=O)O)c1ccc(P(=O)(O)O)cc1,AC50,Cytochrome P450 2C9,31.6 µM (inconclusive)
same,AC50,Cytochrome P450 1A2,20 µM (inconclusive)
Cc1ccc(/C=C2/Sc3ccc(C(=O)N4CCN(C)CC4)cc3NC2=O)cc1,EC50,Streptococcus,14.2 µM (active)
same,EC50,Streptokinase A,> 150 µM (not active)
same,EC50,[2],7.17 µM (active)
Sc1nnc(-c2ccncc2)n1Cc1ccco1,EC50,[1],> 195 µM (not active)
CCOC(=O)C(=NC(C)(C)C)NNc1cc(Cl)ccc1Cl,EC50,Streptococcus,21.1 µM (active)
same,EC50,Streptokinase A,7.59 µM (active)
same,EC50,[2],4.52 µM (active)
CCn1c(O)c(C(c2ccccn2)c2c(O)n(CC)c(=S)[nH]c2=O)c(=O)[nH]c1=S,AC50,Cytochrome P450 2C9,31.6 µM (inconclusive)
same,AC50,Cytochrome P450 2C19; read-out: AC50,0.00562 µM (inconclusive)
O=C(NCCCN1CCC(Cc2ccccc2)CC1)C1CC(=O)N(C2CCCC2)C1 (configuration not stated),EC50,[1],> 195 µM (not active)
CC(=O)C1C(c2ccccc2OC(F)F)NC(=O)NC1(O)C(F)(F)F (configuration not stated),AC50,Cytochrome P450 2C9,15.8 µM (inconclusive)
same,AC50,Cytochrome P450 1A2,5.01 µM (inconclusive)
COc1ccc(N2CCN(C(=O)c3cccc(Br)c3)CC2)c([N+](=O)[O-])c1,EC50,[1],> 195 µM (not active)
COc1cccc(-c2cccc(NC(=O)C3CCN(Cc4ccon4)CC3)c2)c1,EC50,[1],> 195 µM (not active)
COc1ccc2c(c1O)-c1cccc3c1[C@H](C2)N(C)CC3,AC50,Cytochrome P450 2D6,31.6 µM (inconclusive)
same,AC50,Cytochrome P450 3A4,15.8 µM (inconclusive)
same,AC50,Cytochrome P450 2C19; read-out: AC50,7.94 µM (inconclusive)
COc1ccccc1N1CCN(C(c2ccc(N(C)C)cc2)c2nnnn2CCc2ccccc2)CC1 (configuration not stated),EC50,[1],> 195 µM (not active)
COc1ccc(C2N(c3ccccn3)C(=O)C3CCCN32)c(OC)c1 (configuration not stated),AC50,Cytochrome P450 1A2,0.00631 µM (inconclusive)
same,AC50,Cytochrome P450 3A4,22.4 µM (inconclusive)
same,AC50,Cytochrome P450 2C19; read-out: AC50,28.2 µM (inconclusive)
Oc1ccccc1/C=N/NC(=S)NC1CC2CCC1C2 (configuration not stated),EC50,Streptococcus,8.53 µM (active)
same,EC50,Streptokinase A,> 150 µM (not active)
same,EC50,[2],4.8 µM (active)
Cc1nc2ccccc2c(=O)n1/N=C1\C(=O)N(C)c2ccccc21,EC50,[3],12.6 µM (active)
same,EC50,[4],> 120 µM (not active)
same,EC50,H4,> 120 µM (not active)
CC(C)c1c(C(=O)N/N=C/c2cccc(OCc3ccc(F)cc3)c2)nnn1-c1nonc1N,EC50,Streptococcus,23.1 µM (active)
same,EC50,Streptokinase A,2.1 µM (active)
same,EC50,[2],4.9 µM (active)
CC(C)CC(=O)O/N=C1\C(=O)N(c2ccccc2)c2ccccc21,AC50,Cytochrome P450 2C9,6.31 µM (inconclusive)
same,AC50,Cytochrome P450 1A2,3.55 µM (inconclusive)
same,AC50,Cytochrome P450 2C19; read-out: AC50,5.62 µM (inconclusive)
COc1ccc(C/C(C)=N/NC(=S)Nc2ccccc2F)cc1,EC50,[1],96.9 µM (active)
S=C(N/N=C/c1ccc(Br)cc1)N1CCCCC1,EC50,[3],0.174 µM (active)
same,EC50,H4,96.7 µM (active)
O=C(O)[C@H]1CN[C@H](C(=O)O)C1,AC50,Cytochrome P450 2D6,39.8 µM (inconclusive)
same,AC50,Cytochrome P450 1A2,31.6 µM (inconclusive)
same,AC50,Cytochrome P450 2C19,inconclusive
CC1=NN=C(c2ccc(N)cc2)c2cc3c(cc2C1)OCO3 [GYKI-52466],AC50,Cytochrome P450 2D6,25.1 µM (inconclusive) and 31.6 µM (inconclusive)
same,AC50,Cytochrome P450 1A2,31.6 µM (inconclusive)
CCN(CC)CCOC(=O)[C@@H](Cc1cccc2ccccc12)C[C@@H]1CCCO1 [NAFTIDROFURYL],AC50,Cytochrome P450 2D6,5.01 µM (inconclusive)
same,AC50,Cytochrome P450 1A2,10 µM (inconclusive)
